The values below come from US20240199542A1, “SUBSTITUTED PYRROLIDIN-2-ONES, SALTS THEREOF AND THEIR USE AS HERBICIDALLY ACTIVE SUBSTANCES” (Bayer Aktiengesellschaft, priority 2021, published 2024).

Format in all cases: in vivo
Data set [1] relates to Brassica napus (BRSNW). Kind of data set: Post-emergence effects on crop plants. The settings on record: application rate 320 g/ha, crop plant Brassica napus (BRSNW). An excerpt: (§1) Seeds of mono- and dicotyledonous weed plants and crop plants were sown, in plastic or organic planting pots, in sandy loam, covered with soil and grown in a greenhouse under controlled growth conditions. 2 to 3 weeks after sowing, the test plants were sprayed in the single-leaf stage. The compounds according to the invention, formulated in form of wettable powders (WP) or as emulsifiable concentrates (EC), were sprayed onto the green plant parts as aqueous suspension or emulsion, with the addition of 0.5% of an additive, at an application rate of 600 1 of water/ha (converted). The test plants were placed in the greenhouse for ca. 3 weeks under optimum growth conditions, and then the effect of the preparations was assessed visually in comparison with untreated controls (herbicidal effect in percent (%): 100% effect=plants have died off, 0% effect=as control plants).
(§2) Tables D1 to D3 below show the effects of selected compounds of the general formula (I) according to table 1 on various crop plants and an application rate corresponding to 320 g/ha or below obtained by the experimental procedure mentioned above in biology section B.

For data set [2], the system named is Glycine max (GLXMA). Kind of data set: Post-emergence effects on crop plants. The settings on record: 320 g/ha, crop plant.
Source text: as §1, §2

For data set [3], the system named is Zea Mays (ZEAMX). Kind of data set: Post-emergence effects on crop plants. The settings on record: crop plant.
Source text: as §1, §2

The subject of data set [4] is Alopecurus myosuroides (ALOMY). Kind of data set: Herbicidal pre-emergence action. The following applies: graded after ca. 3 weeks. The method, boiled down: (§3)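 Seeds sown in sandy loam and covered with soil; WP- or EC-formulated compounds applied to the covering soil surface as aqueous suspension/emulsion with 0.5% additive at 600 l water/ha, rates of 1280 g/ha or lower. Greenhouse growth; visual damage scored after ca. 3 weeks versus untreated controls (0–100%).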

Data set [5] deals with Echinochloa crus-galli (ECHCG). Kind of data set: Herbicidal pre-emergence action. The settings on record: graded after ca. 3 weeks. In outline:
as §3

Data set [6] deals with Setaria viridis (SETVI). Kind of data set: Herbicidal pre-emergence action. The settings on record: graded after ca. 3 weeks. The method, boiled down: as §3
For the next data set, the system named is Lolium rigidum (LOLRI). Kind of data set: Herbicidal pre-emergence action. The following applies: 320 g/ha, graded after ca. 3 weeks. In outline:
as §3

The next data set deals with Viola tricolor (VIOTR). Kind of data set: Herbicidal pre-emergence action. The following applies: 320 g/ha, graded after ca. 3 weeks. In outline: as §3
Data set [7] deals with Lolium multiflorum (LOLMU). Kind of data set: Herbicidal pre-emergence action. The settings on record: 1280 g/ha, graded after ca. 3 weeks. The method, boiled down: as §3
For data set [8], the system named is Avena fatua (AVEFA). Kind of data set: Herbicidal pre-emergence action. The settings on record: graded after ca. 3 weeks. In outline:
as §3

Data set [9] concerns Polygonum convolvulus (POLCO). Kind of data set: Herbicidal pre-emergence action. The settings on record: graded after ca. 3 weeks. In outline:
as §3

The subject of data set [10] is Digitaria sanguinalis (DIGSA). Kind of data set: Herbicidal pre-emergence action. The following applies: 320 g/ha, graded after ca. 3 weeks. In outline: as §3
Data set [11] concerns Alopecurus myosuroides (ALOMY). Kind of data set: Herbicidal post-emergence action. The settings on record: assessed after ca. 3 weeks. The method, boiled down:
(§4)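 Seeds were sown in sandy loam and grown under controlled greenhouse conditions. At the single-leaf stage (2 to 3 weeks), green parts were sprayed with the aqueous formulated compound (0.5% additive, 600 l water/ha, 1280 or 320 g/ha). About 3 weeks later, effect was rated visually in percent against untreated plants.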

Data set [12] has as its system Echinochloa crus-galli (ECHCG). Kind of data set: Herbicidal post-emergence action. The following applies: assessed after ca. 3 weeks. In outline: as §4
The subject of data set [13] is Avena fatua (AVEFA). Kind of data set: Herbicidal post-emergence action. The settings on record: assessed after ca. 3 weeks. The method, boiled down: as §4
In data set [14] the test system is Digitaria sanguinalis (DIGSA). Kind of data set: Herbicidal post-emergence action. The following applies: 320 g/ha, assessed after ca. 3 weeks. The method, boiled down:
as §4

For data set [15], the system named is Brassica napus (BRSNW). Kind of data set: Pre-emergence effects on crop plants. The settings on record: 320 g/ha, crop plant. An excerpt: (§5) Seeds of mono- and dicotyledonous weed plants and crop plants were sown, in plastic or organic planting pots, in sandy loam and covered with soil. The compounds according to the invention, formulated in the form of wettable powders (WP) or as emulsifiable concentrates (EC), were applied to the surface of the covering soil as aqueous suspension or emulsion, with the addition of 0.5% of an additive, at an application rate of 600 1 of water/ha (converted).
(§6) Following treatment, the pots were placed in a greenhouse and kept under optimum growth conditions for the test plants. The visual grading of the damage to the test plants was carried out after ca. 3 weeks in comparison to untreated controls (herbicidal effect in percent (%): 100% effect=plants have died off, 0% effect=as control plants).
(§7) Tables C1 to C3 below show the effects of selected compounds of the general formula (I) according to table 1 on various crop plants and an application rate corresponding to 320 g/ha or below obtained by the experimental procedure mentioned above in biology section A.

The test system of data set [16] is Glycine max (GLXMA). Kind of data set: Pre-emergence effects on crop plants. The following applies: crop plant.
Source text: as §5, §6, §7

The subject of data set [17] is Zea Mays (ZEAMX). Kind of data set: Pre-emergence effects on crop plants. The settings on record: crop plant.
Source text: as §5, §6, §7

The subject of data set [18] is Cyperus esculentus (CYPES). Kind of data set: Herbicidal pre-emergence action. The following applies: 1280 g/ha, graded after ca. 3 weeks. The method, boiled down:
as §3

Data set [19] concerns Setaria viridis (SETVI). Kind of data set: Herbicidal post-emergence action. The following applies: 1280 g/ha, assessed after ca. 3 weeks. In outline:
as §4

In data set [20] the test system is Lolium multiflorum (LOLMU). Kind of data set: Herbicidal post-emergence action. The following applies: 1280 g/ha, assessed after ca. 3 weeks. In outline: as §4

Consider `O=C(O)C1CCCN1C(=O)CC1CCC(=O)N1Cc1cccc(F)c1F` (racemic) [Example I-013], for which the “post-emergence activity against BRSNW” value in the data set with Brassica napus (BRSNW) [1] is reported as 0%. The “post-emergence activity against GLXMA (crop damage)” value in the data set on Glycine max (GLXMA) [2] was determined as 0%. Moreover, the “post-emergence activity against ZEAMX (crop damage)” value with Zea Mays (ZEAMX) [3] (320 g/ha) is given as 0%. In data set [4] (1280 g/ha), the “Pre-emergence activity against ALOMY” value was 90%. Further, the “Pre-emergence activity against ECHCG” value in data set [5] (1280 g/ha) was determined as 90%. For the same compound, in the data set on Setaria viridis (SETVI) [6] (1280 g/ha), the “Pre-emergence activity against SETVI” value is reported as 90%. For the same compound, the “Pre-emergence activity against LOLRI” value with Lolium rigidum (LOLRI) is 80%. In the data set with Viola tricolor (VIOTR), the “Pre-emergence activity against VIOTR” value is given as 90%. For the same compound, in [7], the “Pre-emergence activity against LOLMU” value turned out to be 90%. Further, the “Pre-emergence activity against AVEFA” value with Avena fatua (AVEFA) [8] (1280 g/ha) is 100%. The “Pre-emergence activity against POLCO” value in [9] (1280 g/ha) worked out at 90%. The “Pre-emergence activity against DIGSA” value in [10] is 90%. In data set [11] (1280 g/ha), the “Post-emergence activity against ALOMY” value is listed as 80%. For the same compound, in data set [12] (1280 g/ha), the “Post-emergence activity against ECHCG” value is recorded as 80%. Also, the “Post-emergence activity against AVEFA” value with Avena fatua (AVEFA) [13] (1280 g/ha) is listed as 80%. Moreover, in data set [14], the “Post-emergence activity against DIGSA” value was determined as 80%. In the data set with Brassica napus (BRSNW) [15], the “pre-emergence activity against BRSNW (crop damage)” value is recorded as 0%. In addition, the “pre-emergence activity against GLXMA (crop damage)” value in the data set with Glycine max (GLXMA) [16] (80 g/ha) is given as 0%. In addition, the “pre-emergence activity against ZEAMX (crop damage)” value with Zea Mays (ZEAMX) [17] (320 g/ha) is listed as 0%.

Consider `CS(=O)(=O)CCOC(=O)CC1CCC(=O)N1Cc1cccc(F)c1F` (racemic) [Example I-009], for which, in the data set with Brassica napus (BRSNW) [1], the “post-emergence activity against BRSNW” value is listed as 20%. Further, the “post-emergence activity against GLXMA (crop damage)” value with Glycine max (GLXMA) [2] was found to be 0%. Further, the “Pre-emergence activity against ALOMY” value in [4] (1280 g/ha) was found to be 90%. In addition, the “Pre-emergence activity against ECHCG” value in [5] (1280 g/ha) turned out to be 90%. Moreover, the “Pre-emergence activity against SETVI” value with Setaria viridis (SETVI) [6] (1280 g/ha) came to 80%. In addition, in [18], the “Pre-emergence activity against CYPES” value came to 80%. In addition, the “Pre-emergence activity against LOLRI” value in the data set with Lolium rigidum (LOLRI) is listed as 80%. In addition, the “Pre-emergence activity against VIOTR” value with Viola tricolor (VIOTR) was found to be 100%. The “Pre-emergence activity against LOLMU” value in data set [7] was 80%. Also, the “Pre-emergence activity against AVEFA” value in the data set on Avena fatua (AVEFA) [8] (1280 g/ha) amounted to 100%. In addition, the “Pre-emergence activity against POLCO” value in [9] (320 g/ha) was 80%. In addition, the “Pre-emergence activity against DIGSA” value in data set [10] is reported as 90%. For the same compound, the “Post-emergence activity against ALOMY” value in data set [11] (1280 g/ha) stood at 80%. The “Post-emergence activity against ECHCG” value in [12] (1280 g/ha) is recorded as 100%. Moreover, in the data set with Setaria viridis (SETVI) [19], the “Post-emergence activity against SETVI” value is on record as 80%. Moreover, the “Post-emergence activity against LOLMU” value in data set [20] came to 90%. Also, in the data set on Avena fatua (AVEFA) [13] (1280 g/ha), the “Post-emergence activity against AVEFA” value was determined as 90%. The “Post-emergence activity against DIGSA” value in data set [14] worked out at 80%. Moreover, the “pre-emergence activity against BRSNW (crop damage)” value in the data set with Brassica napus (BRSNW) [15] was 0%. In addition, the “pre-emergence activity against GLXMA (crop damage)” value with Glycine max (GLXMA) [16] (80 g/ha) is 20%.

For `O=C(O)CC1CCC(=O)N1Cc1cc(F)cc(F)c1F` (racemic) [Example I-201], the “post-emergence activity against GLXMA (crop damage)” value with Glycine max (GLXMA) [2] is recorded as 0%. The “post-emergence activity against ZEAMX (crop damage)” value with Zea Mays (ZEAMX) [3] (80 g/ha) was determined as 0%. Also, the “Pre-emergence activity against ALOMY” value in [4] (320 g/ha) turned out to be 100%. For the same compound, in data set [5] (320 g/ha), the “Pre-emergence activity against ECHCG” value was found to be 100%. The “Pre-emergence activity against SETVI” value in the data set with Setaria viridis (SETVI) [6] (320 g/ha) is listed as 100%. Moreover, in the data set on Lolium rigidum (LOLRI), the “Pre-emergence activity against LOLRI” value is given as 80%. Also, in the data set on Avena fatua (AVEFA) [8] (320 g/ha), the “Pre-emergence activity against AVEFA” value is recorded as 100%. The “Pre-emergence activity against DIGSA” value in [10] came out at 90%. The “Post-emergence activity against ALOMY” value in data set [11] (320 g/ha) is given as 90%. In addition, in data set [12] (320 g/ha), the “Post-emergence activity against ECHCG” value was 90%. The “Post-emergence activity against AVEFA” value in the data set with Avena fatua (AVEFA) [13] (320 g/ha) is on record as 100%. Further, in data set [14], the “Post-emergence activity against DIGSA” value came out at 90%. In addition, the “pre-emergence activity against GLXMA (crop damage)” value in the data set with Glycine max (GLXMA) [16] (320 g/ha) worked out at 0%. The “pre-emergence activity against ZEAMX (crop damage)” value in the data set on Zea Mays (ZEAMX) [17] (80 g/ha) worked out at 0%.
